# Measurements reported in patent publication US20040043442A1, “Use of betaine in functional products having blood pressure lowering effects” (Finnfeeds Finland Oy, priority 2001, published 2004).
# Legend:
# Assay type in all cases: in vivo, human
# [1] = Betaine absorption and excretion: blood, serum and urine levels after administration
# Method: There was, however, no clear correlation between blood and urine betaine levels. After administration of 1, 3 or 6 g betaine an amount of about 3, 5 and 7%, respectively, was recovered as betaine and dimethylglycine (DMG) in 24 h urine. After loading betaine 100 mg/kg, peak serum concentrations were found 1-2 h after loading; the concentrations varying a lot with indiviudual (148-258 μmol/l).
# [2] = tested on: healthy, obese adults with normal blood pressure; assay: Tolerability of the daily betaine dose in the intervention study; settings: 6 g daily dose, 12 weeks
# Source text: (§1) The effects of betaine supplementation on blood pressure, and in addition on body weight, body composition, resting energy expenditure, and concentrations of serum total and lipoprotein lipids and plasma homocysteine in humans, were studied. The participants were healthy, obese adults with normal blood pressure.
# (§2) Forty-two subjects (14 males, 28 females) without any chronic disease and with normal liver, kidney and thyroid function participated in the study. The inclusion criteria for body mass index (BMI) was 28-40 kg/m^2 and for age 25-60 years. Serum concentration of total triglycerides had to be <3.5 mmol/l and that of total cholesterol <7.5 mmol/l. Inclusion criteria for fasting concentration of plasma glucose was <6.7 mmol/l. Subjects with lipid lowering medication were excluded as well women with perimenopause. Four women were postmenopausal in the control group and 6 were postmenopausal in the betaine group. None of the participants were on a medication for hypertension.
# The study was a controlled, randomized double-blinded parallel study. […] Grapefruit juice was added to simulate the bitter taste of betaine. The subjects were on their regular eucaloric diet during this period. For the intervention period with a hypocaloric (−2100 kJ or −500 kcal) diet the subjects were randomly assigned in two groups (20 for the control group, 22 for the betaine group). […]
# homocysteine = assay: Total homocysteine by HPLC in the intervention study
# Source text: as §1, §2
# (§3) The study was a controlled, randomized double-blinded parallel study. […] Grapefruit juice was added to simulate the bitter taste of betaine. The subjects were on their regular eucaloric diet during this period. For the intervention period with a hypocaloric (−2100 kJ or −500 kcal) diet the subjects were randomly assigned in two groups (20 for the control group, 22 for the betaine group). The subjects were matched for BMI, gender and menstrual cycle.
# (§4) The control group consumed orange juice 1 dl twice a day and the betaine group consumed betaine enriched orange juice 1 dl twice a day. The amount of betaine was 3 g per 1 dl orange juice, giving a daily betaine dose of 6 g.
# Plasma total homocysteine was determined by a modification of the highpressure liquid chromatographic method described by Ubbink et al. (Ubbink, J. B., Vermaak, W. J. H., Bissbort, S. Rapid high-performance liquid chromatographic assay for total homocysteine levels in human serum. J Chromatogr (1991) 565:441446). The modified mobile phase consisted of 0.37 mol/l acetate and 0.5% methanol, pH 4.15.
# [3] = tested on: healthy, obese adults with normal blood pressure; assay: Effect of betaine on blood pressure, controlled randomized double-blinded 12-week intervention study
# Source text: as §1, §2, §3, §4
# The data were analyzed with the SPSS/PC+ statistics program (V8.0, SPSS; Chicago, Ill.). Before further analyses, normal distribution of the variables was checked with the Kolmogorov-Smimov test with Lilliefors significance correction. Variables with abnormal distribution (TG) were logarithmized and the logarithmized values were used in further analyses. GLM for repeated measures was used to test the changes within time. In cases the result of this analysis was significant paired t-test was used for two-tailed comparisons within the groups. Student's t-test was used for between-group comparisons. […] All data are expressed as mean±SD.
# Blood pressure was measured from the right arm after five minutes of rest in sitting position using a zero mercury sphygmomanometer. Two measurements were performed and the mean of them was calculated and used for further analyses.
# [4] = 4 wk (beginning of intervention period), betaine group, mean ± SD
smiles,measurement,setting,value
"C[N+](C)(C)CC(=O)[O-] [Betaine, trimethylglycine]",Time of peak serum concentrations after loading,[1]; loading betaine 100 mg/kg,1 to 2 h
same,Peak serum concentrations,"[1]; loading betaine 100 mg/kg, varying with individual",148 to 258 µmol/L
same,Betaine in blood and urine of persons given betaine (result in words),[1]; persons given betaine in the study,Significantly increased amounts
same,Side effects,[2],no side effects were observed
same,Tolerability,[2],well tolerated
same,Serum homocysteine concentration,"homocysteine; 4 wk (beginning of intervention), betaine group, mean ± SD",8.76 ± 1.63 µmol/L
same,Serum homocysteine concentration,"homocysteine; 16 wk (end of intervention), betaine 6 g daily, P=0.025 vs 4 wk",7.93 ± 1.52 µmol/L
same,Change in serum homocysteine concentration during the intervention period,"homocysteine; betaine 6 g daily, P=0.030 vs control group",-0.83 ± 0.34 µmol/L
same,Diastolic blood pressure,[3]; [4],85.4 ± 7.9 mmHg
same,Systolic blood pressure,[3]; [4],122.5 ± 9.5 mmHg
same,Change in diastolic blood pressure during the intervention period,"[3]; 12-week intervention, betaine 6 g daily, mean ± SD, P=0.219 vs control group",−4.9 ± 6.6 mmHg
same,Change in systolic blood pressure during the intervention period,"[3]; 12-week intervention, betaine 6 g daily, mean ± SD, P=0.740 vs control group",−1.4 ± 8.0 mmHg
same,Diastolic blood pressure,"[3]; 16 wk (end of intervention period), betaine 6 g daily in orange juice, mean ± SD, P=0.002 vs 4 wk",80.5 ± 7.1 mmHg
same,Systolic blood pressure,"[3]; 16 wk (end of intervention period), betaine 6 g daily in orange juice, mean ± SD, P=0.432 vs 4 wk",121.1 ± 9.4 mmHg
same,Diastolic blood pressure (result in words),"[3]; betaine group, normotensive subjects, 4 wk vs 16 wk",decreased significantly
